pIC50: −log10 of the molar value. Values after ≈ are worked out from the molar mass of the structure shown. Where a name gives a salt, the structure may show the parent alone.
How the values were obtained:
[1] = system: Mycobacterium tuberculosis; assay: Antituberculosis activity against Mycobacterium tuberculosis H37Rv assessed as inhibition of bacterial growth after 45 days; assay type: functional
[2] = system: HEK-293T; assay: Cytotoxicity against human 293T cells after 72 hrs by MTT assay; assay type: cell-based

| SMILES | MIC [1] [µM] | pIC50 [2] |
| --- | --- | --- |
| COC(=O)[C@H](Cc1cc2ccccc2[nH]1)NC(=O)Cn1cnc2c1c(=O)n(C)c(=O)n2C | 0.46 (≈ 0.202 µg/mL) | < 3.40 |
| C[C@H](NC(=O)Cn1cnc2c1c(=O)n(C)c(=O)n2C)C(=O)O | 0.65 (≈ 0.201 µg/mL) | < 3.40 |
| Cn1c(=O)c2c(ncn2CC(=O)N[C@@H](Cc2cc3ccccc3[nH]2)C(=O)O)n(C)c1=O | 0.47 (≈ 0.199 µg/mL) | < 3.40 |
| CC[C@@H](CO)NCCN[C@@H](CC)CO [ETHAMBUTOL HYDROCHLORIDE] | 7.22 | – |

Source: ChEMBL document CHEMBL3297704, “Theophylline-7-acetic acid derivatives with amino acids as anti-tuberculosis agents” (Bioorg Med Chem Lett, 2014)
